Measured values as given in US20140323457A1, “BETA-O/S/N FATTY ACID BASED COMPOUNDS AS ANTIBACTERIAL AND ANTIPROTOZOAL AGENTS” (LUDWIG-MAXIMILIANS-UNIVERSITÄT MÜNCHEN, priority 2011, published 2014).
≈ marks a conversion by molar mass, not a printed value. Like-named read-outs stand apart in the source and are kept apart here.

How the values were obtained:
[1] = tested on: S. aureus strain NCTC 8325; experiment: liquid culture-based hemolysis assay (secreted hemolysins, sheep red blood cells); assay type: cell-based
Protocol: The inhibition of hemolysin production has thus been further analysed in liquid bacterial cultures in order to evaluate their potential effects on bacterial growth simultaneously. Besides AVU1Acid, AVU1AAc, AVU1AA and VK273 the following further compounds were tested in liquid bacterial cultures:
(§1) 1 ml of an appropriate bacterial broth for the standard laboratory S. aureus strain NCTC 8325 were inoculated with 1*10^6 cfu. The cultures were kept overnight at 37° C. with gentle shaking 300 rpm in the presence of compounds AVU1Acid, AVU1AAc, AVU1AA or VK273 according to the present invention at different concentrations or dimethyl sulfoxide (DMSO) as control. Different beta-lactone virulence inhibitors were used as reference compounds. Following overnight incubation the optical density was measured in order to determine the minimal inhibiting concentration (MIC), which is defined as the lowest concentration of an antimicrobial that will inhibit the visible growth of a microorganism after overnight incubation. A 100 μl fraction of the supernatant of the grown bacterial cultures was subsequently analysed for the content of secreted bacterial hemolysins by addition of sheep red blood cells (10% v/v in PBS) and the measurement of the optical density at 410 nm after 30 min incubation at 37° C.
The following results were obtained in further liquid culture-based hemolysis assays. Since the assays were performed at different times with different charges of sheep red blood cells AVU1 has been tested as a reference substance in each assay. The resulting EC50 values determined for the tested compounds have to be assessed with respect to the EC50 value determined for AVU1.

[2] = tested on: S. aureus strain NCTC 8325; experiment: minimal inhibiting concentration (MIC) in liquid bacterial culture; assay type: cell-based; settings: overnight 37° C.
Protocol: as §1

[3] = target: T1, CIpP protease from S. aureus NCTC8325 (SaCIpP) (Staphylococcus aureus, UniProt Q2G036); experiment: in vitro inhibition of recombinant S. aureus CIpP with SLY-AMC substrate; assay type: biochemical; settings: inhibitor 2 mM (1000×), 30 min RT; SLY-AMC 200 μM; FIG. 3
T1 construct: made in house; host or cells: E. coli
T1 sequence (Q2G036 1-195): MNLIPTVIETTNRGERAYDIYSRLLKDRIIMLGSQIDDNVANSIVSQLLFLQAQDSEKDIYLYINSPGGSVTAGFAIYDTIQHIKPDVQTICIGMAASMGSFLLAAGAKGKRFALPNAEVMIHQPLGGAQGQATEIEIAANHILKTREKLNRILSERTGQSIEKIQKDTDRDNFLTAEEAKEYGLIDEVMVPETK
Protocol: The CIpP protease from S. aureus NCTC8325 (SaCIpP) was recombinantly overexpressed in E. coli and purified in order to investigate enzyme inhibition using SLY-AMC (N-succinyl-Leu-Tyr-7-amido-4-methylcoumarin) as fluorogenic model substrate.
Precisely, 9 μl of SaCIpP in buffered solution (final concentration 0.05 mg/ml, 2 μM; buffer: 100 mM NaCl, 20 mM Tris, pH 7.0) were incubated in the presence of 1 μl of various inhibitors (final concentration 2 mM=1000×) for 30 min at room temperature (RT). Subsequently, SLY-AMC was added to a final concentration of 200 μM and the increase in fluorescence due to enzymatic substrate proteolysis was measured using a TECAN GENios Pro™ plate reader at 380/440 nm (excitation/emission) at time intervals of 60 s over 40 min at 37° C. The enzymatic activity was determined as the slope of fluorescence (2=440 nm) over time. As positive controls, the in vivo active beta-lactone compound AVU1 (“U1”; WO 2009/106211) and the in vitro potent CIpP beta-lactone inhibitor D3 (WO 2009/106211) were employed.

S. aureus NCTC 8325 = experiment: agar plate-based hemolysis assay on sheep blood agar; assay type: cell-based; settings: FIG. 1; over night at 37° C.
Excerpt: Several compounds of the invention as well as reference compounds have been tested against S. aureus NCTC 8325 on sheep blood agar. Hemolysins are key virulence factors of S. aureus that contribute to the pathogenicity of these bacteria. The production of hemolysins can be easily monitored by lysis of sheep blood and generation of a clear zone around the bacterial colonies on the agar plate. Hemolysins are co-regulated with the majority of important virulence factors and have been qualified in previous studies as a reliable measure of agr quorum sensing regulated virulence (T. Böttcher, S. A. Sieber, J Am Chem Soc 2008, 130, 14400).
Agar plate-based hemolysis was tested on 5% sheep blood agar plates (Heipha Diagnostika, Eppelheim, Germany). Sterile circles of Whatman® cards (No. 1, Schleicher & Schuell) with 5.5 mm diameter were placed on the agar plates and inoculated with 2.5 μL of the corresponding lactone/DMSO and 2.5 μL stationary phase culture of S. aureus NCTC 8325 diluted to OD600=0.13. The plates were incubated over night at 37° C. and the diameters of the zones around the bacterial colonies were precisely measured using a vernier caliper. Doses of the compounds required to produce the half maximum effect (ED50) were calculated from curve fittings by Microcal™ Origin 6.0.

[4] = Staphylococcus aureus, NCTC8325, Erythrocyte, Assay 3, hemolysin production, assess relative to AVU1
[5] = Staphylococcus aureus, NCTC8325, Assay 3, read-out: MIC
[6] = Staphylococcus aureus, NCTC8325, Erythrocyte, Assay 1, hemolysin production
[7] = Staphylococcus aureus, NCTC8325, Assay 1, read-out: MIC
[8] = Assay 4, hemolysin production, assess relative to AVU1
[9] = Assay 2, hemolysin production, assess relative to AVU1

## NC(=O)[C@H](CCc1ccccc1)[C@H](O)CCc1ccccc1 (relative stereo) [VK403-1, (2R*,3R*)-3-Hydroxy-2-(2-phenylethyl)-5-phenylpentanamide]
[1]; [4]
  EC50: 50 to 100 µM
[2]; Assay 3, read-out: MIC
  MIC: >1000 µM
[2]; [5]
  MIC: > 1000 µM

## C=CCCCCCCC[C@H]1C(=O)O[C@@H]1Cc1ccccc1 [AVU6, reference compound]
[1]; [6]
  EC50: 440 µM
[2]; [7]
  MIC: > 1000 µM

## C#CCCCCCCC[C@H](C(=O)OC)[C@H](O)CCc1ccc(C2(C(F)(F)F)N=N2)cc1 (relative stereo) [JS-14_1, Methyl (3R*,2S*)-3-Hydroxy-2-(8-noninyl)-5-(4-(3-trifluoromethyl-3H-diazirinyl)-phenyl)-pentanoate]
[1]; [8]
  EC50: 166 µM
[2]; Assay 4, read-out: MIC
  MIC: >1000 µM

## C#CCCCCCCC[C@@H](C(=O)O)[C@H](O)CCc1ccc(C2(C(F)(F)F)N=N2)cc1 (relative stereo) [JS-11_2, (3R*,2R*)-3-Hydroxy-2-(8-noninyl)-5-(4-(3-trifluoromethyl-3H-diazirinyl)-phenyl)-pentanoic acid]
[1]; [8]
  EC50: 2.2 µM
[2]; Assay 4
  MIC: 10 to 50 µM

## C#CCCCCCCC[C@H](C(N)=O)[C@H](O)CCc1ccc(C2(C(F)(F)F)N=N2)cc1 (relative stereo) [JS-14_1Amid, (3R*,2S*)-3-Hydroxy-2-(8-noninyl)-5-(4-(3-trifluoromethyl-3H-diazirinyl)-phenyl)-pentanamide]
[1]; [8]
  EC50: 2.3 µM
[2]; Assay 4, read-out: MIC
  MIC: >1000 µM

## C#CCCCCCCC[C@@H](C(N)=O)[C@H](O)CCc1ccc(C2(C(F)(F)F)N=N2)cc1 (relative stereo) [JS-14_2Amid, (3R*,2R*)-3-Hydroxy-2-(8-noninyl)-5-(4-(3-trifluoromethyl-3H-diazirinyl)-phenyl)-pentanamide]
[1]; [8]
  EC50: 2.8 µM
[2]; Assay 4, read-out: MIC
  MIC: >1000 µM

## C=CCCCCCCCC(C(=O)OC)C(O)CCc1ccccc1 (stereo not shown) [AVU1AME]
[3]
  inhibition of SaCIpP: inhibit SaCIpP at an at least comparable level as the in vivo active beta-lactone reference compound AVU1
S. aureus NCTC 8325
  inhibition of hemolysis (virulence inhibition) on sheep blood agar: moderate

## C=CCCCCCCCC1OC(=O)C1CCc1ccccc1 (stereo not shown) [AVU4, reference compound]
[1]; [6]
  EC50: 435 µM
[2]; [7]
  MIC: > 1000 µM

## C#CCCCCCCCC(C(N)=O)C(O)CCc1ccc(C(=O)c2ccccc2)cc1 (stereo not shown) [JS-65, 5-(4-Benzoylphenyl)-3-hydroxy-2-(8-noninyl)-pentanamide]
[1]; [9]
  EC50: 1 to 5 µM
[2]; Assay 2, read-out: MIC
  MIC: >1000 µM

## C#CCCCCCCCC(C(=O)O)C(O)CCc1ccc(C(=O)c2ccccc2)cc1 (stereo not shown) [JS-64, 5-(4-Benzoylphenyl)-3-hydroxy-2-(8-noninyl)-pentanoic acid]
[1]; [9]
  EC50: 1 to 5 µM
[2]; Assay 2, read-out: MIC
  MIC: >1000 µM

## C#CCCCCCCC[C@H](C(=O)O)[C@H](O)CCc1ccc(C2(C(F)(F)F)N=N2)cc1 (relative stereo) [JS-11_1, (3R*,2S*)-3-Hydroxy-2-(8-noninyl)-5-(4-(3-trifluoromethyl-3H-diazirinyl)-phenyl)-pentanoic acid]
[1]; [8]
  EC50: 3.6 µM
[2]; Assay 4
  MIC: 10 to 50 µM

## C#CCCCCCCC[C@@H](C(=O)OC)[C@H](O)CCc1ccc(C2(C(F)(F)F)N=N2)cc1 (relative stereo) [JS-14_2, Methyl (3R*,2R*)-3-Hydroxy-2-(8-noninyl)-5-(4-(3-trifluoromethyl-3H-diazirinyl)-phenyl)-pentanoate]
[1]; [8]
  EC50: 64 µM
[2]; Assay 4, read-out: MIC
  MIC: >1000 µM

## CCCCCCCCC[C@@H](C(N)=O)[C@H](O)CCc1ccccc1 (relative stereo) [VK453-1, (2R*,3R*)-3-Hydroxy-2-nonyl-5-phenylpentanamide]
[1]; Staphylococcus aureus, NCTC8325, Erythrocyte, Assay 2, hemolysin production, assess relative to AVU1
  EC50: 1 to 5 µM
[2]; Assay 2, read-out: MIC
  MIC: >1000 µM
[2]; Staphylococcus aureus, NCTC8325, Assay 2, read-out: MIC
  MIC: > 1000 µM

## C=CCCCCCCCC(C(=O)O)C(O)CCc1ccccc1 (stereo not shown) [AVU1Acid, 3-hydroxy-2-(non-8-enyl)-5-phenylpentanoic acid]
S. aureus NCTC 8325
  inhibition of hemolysis (virulence inhibition) on sheep blood agar: potent virulence inhibitors
[1]; [6]
  EC50: 1.18 µM
[2]; [7]
  MIC: 50 to 100 µM (≈ 15.9 to 31.8 µg/mL)

## C=CCCCCCCC[C@H]1C(=O)O[C@@H]1CCCc1ccccc1 [AVU7, reference compound]
[1]; [6]
  EC50: 22 µM
[2]; [7]
  MIC: > 1000 µM

## C=CCCCCCCCC(C(=O)O)C(CCc1ccccc1)OC(C)=O (stereo not shown) [AVU1AAc, 3-acetoxy-2-(non-8-enyl)-5-phenylpentanoic acid]
[3]
  inhibition of SaCIpP: inhibit SaCIpP at an at least comparable level as the in vivo active beta-lactone reference compound AVU1
S. aureus NCTC 8325
  inhibition of hemolysis (virulence inhibition) on sheep blood agar: high
[1]; [6]
  EC50: 2.43 µM
[2]; [7]
  MIC: 50 to 100 µM (≈ 18 to 36 µg/mL)

## C=CCCCCCCC[C@@H](C(N)=O)[C@H](O)CCCc1ccccc1 (relative stereo) [VK375, (2R*,3R*)-3-Hydroxy-2-(non-8-enyl)-6-phenylhexanamide]
[1]; [4]
  EC50: 1 to 5 µM
[2]; Assay 3, read-out: MIC
  MIC: >1000 µM
[2]; [5]
  MIC: > 1000 µM

## C=CCCCCCCCC(C(=O)SCC(NC(C)=O)C(=O)OC)C(CCc1ccccc1)OC(C)=O (stereo not shown) [AVU1AAcTE, reference compound]
S. aureus NCTC 8325
  inhibition of hemolysis (virulence inhibition) on sheep blood agar: only low efficiency and incomplete inhibition of hemolysis

## C=CCCCCCCC[C@@H](C(N)=O)[C@H](O)Cc1ccccc1 (relative stereo) [VK508-3, (2R*,3R*)-3-Hydroxy-2-(non-8-enyl)-4-phenylbutanamide]
[1]; [4]
  EC50: 10 to 50 µM
[2]; Assay 3, read-out: MIC
  MIC: >1000 µM
[2]; [5]
  MIC: > 1000 µM

## C=CCCCCCCC[C@H]1C(=O)O[C@@H]1CCc1cc(F)cc(F)c1 [AVU5, reference compound]
[1]; [6]
  EC50: 16.1 µM
[2]; [7]
  MIC: > 1000 µM
